Patent US20200087258A1, “INHIBITOR OF CITRATE TRANSPORTER AND THEIR USE IN THERAPY” (Eternygen GmbH, priority 2017, published 2020)

Key:
INDY [1] = biological target: T1, INDY (Homo sapiens, UniProt Q86YT5); assay: 14C-citrate uptake in HepG2 cells endogenously expressing INDY (NaCT); assay type: cell-based; conditions: endogenous INDY
Procedure: The compound was obtained by screening of a library containing more than 50,000 lead-like compounds and fragments. The library was tested using a functional citrate uptake assay with HEK293 cells overexpressing recombinant human INDY. The following hit confirmation was conducted in the same assay system. To confirm the activity of selected compounds on the target INDY another cell assay was conducted. In this assay system citrate uptake was measured using HepG2 cells which endogenously express INDY. Furthermore selectivity of selected compounds was tested for two other transporters in different assay systems. The first transporter was the glutamate transporter GLT-1 tested in a glutamate uptake assays using HEK293 cells overexpressing recombinant human GLT-1. The second transporter was the glucose transporter GLUT1 tested in a glucose uptake assay using Huh-7 cells which endogenously express GLUT1. Compounds were considered to be selective with an at least 5-fold higher activity for INDY than for the other two transporters.
Cells were maintained in cell medium using cell culture grade flasks (CellSTACK Corning, 500 cm2 dishes or T175 depending on cell number). The selection antibiotic and G418 (800 μg/ml) was added during cultivation but not for seeding into assay plates. For splitting, cells were washed with PBS (w/o Ca2+, Mg2+, phenol red) and detached with Trypsin/EDTA. Throughout cultivation cells were kept sub-confluent. Detached cells (50,000 cells/well) were seeded in 96-well plates (white, clear bottom from Corning #655098) and incubated over night before usage in the assay. The following media were used. For HEK293 cells expressing INDY MEM (PAA)+10% FCS+1×P/S+2 mM L-Gln; for HEK293 cells expressing GLT-1 DMEM (Gibco)+10% FCS+400 µg/ml G418; for Huh7 cells DMEM (Gibco)+10% FCS+2 mM L-Gin (+1×P/S); for HepG2 cells MEM (PAA, Cat # E15-024)+10% FCS+2 mM L-Gin+1×NEAA+1 mM Na-Pyruvat
The following assay buffers for the particular uptake reaction were used. Citrate uptake buffer: 120 mM NaCl, 5.4 mM KCl, 0.8 mM MgSO4, 5 mM glucose, 1.8 mM CaCl2, 25 mM Hepes, 25 mM MES, pH 6.5. Glutamate uptake buffer: HBSS, 1 mM CaCl2, 1 mM MgCl2, 20 mM Hepes pH 7.4. Glucose uptake buffer: 25 mM Hepes+25 mM MES pH 7.4, 120 mM NaCl, 5.4 mM KCl, 1.8 mM CaCl2, 0.8 mM MgSO4.
INDY mediated citrate uptake was also determined in HepG2 cells. To determine the uptake of ^14C labelled citrate into cells, HepG2 cells endogenously expressing human NaCT were used. (Gopal et al. 2007 Am J Physiol Gastrointest Liver Physiol 292).
HepG2 cells were seeded into white clear-bottom 96-well plates (50,000/well) coated with collagen and incubated at 37° C. for 16-24 hours. After that plates were washed once with assay buffer using automated washing/LS 405 Selectors, BioTek ending with a buffer volume of 40 μl. Then 5 μl of compound solution in assay buffer was added and incubated for 5 min at 37° C. in cell incubator, HERA cell Heraeus. Afterwards 10 μl of substrate 14C-citrate (10 nM) were added and incubated for another 90 min at 37° C. in cell incubator, HERAcell. Then plates were washed 3× with 200 μl buffer and […] cell lysis induced by adding 50 μl ice-cold NaOH (100 mM). Plates were incubated for 25 min at RT on a plate shaker and afterwards 200 μl scintillation fluid was added and incubated for 15 min on a plate shaker at RT and for another 15 min without shaking at RT. Plates were measured using a TopCount system. As a positive control 5 mM citrate was applied. It is possible to use this assay also in analogy in a 384-well plate format.

INDY [2] = biological target: T1, INDY; assay: 14C-citrate uptake in HEK293 cells overexpressing recombinant human INDY (NaCT); assay type: cell-based; set-up: expressed in transfected cells; host or cells: HEK293
Summary of the method: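 HEK293 cells overexpressing human NaCT, 50,000/well, preincubated 5-30 min at 37 °C with compound in pH 6.5 Na+ buffer. 14C-citrate ([…]) uptake then ran 20-90 min at 37 °C, followed by ice-cold washes, NaOH lysis and scintillation counting. 10 mM citrate served as positive control.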

T1 sequence (Q86YT5 whole entry, the tested form may be a part): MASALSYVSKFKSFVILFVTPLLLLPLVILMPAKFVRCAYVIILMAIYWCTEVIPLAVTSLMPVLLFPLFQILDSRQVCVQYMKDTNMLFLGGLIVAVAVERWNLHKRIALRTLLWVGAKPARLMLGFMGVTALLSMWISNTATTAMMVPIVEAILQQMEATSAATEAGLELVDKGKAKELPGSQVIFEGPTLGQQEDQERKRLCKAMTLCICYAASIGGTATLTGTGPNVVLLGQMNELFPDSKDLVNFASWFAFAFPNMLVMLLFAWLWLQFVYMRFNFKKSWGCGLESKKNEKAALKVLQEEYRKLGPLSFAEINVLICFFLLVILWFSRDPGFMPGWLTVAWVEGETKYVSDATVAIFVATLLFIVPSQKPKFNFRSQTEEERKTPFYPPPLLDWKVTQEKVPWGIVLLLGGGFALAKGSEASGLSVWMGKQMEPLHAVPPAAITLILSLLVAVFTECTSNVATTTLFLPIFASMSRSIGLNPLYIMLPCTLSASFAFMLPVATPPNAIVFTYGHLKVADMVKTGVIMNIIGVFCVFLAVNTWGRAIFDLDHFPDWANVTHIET

SMILES | IC50 (INDY [1]) [µM] | IC50 (INDY [2]) [µM]
O=C(NCc1ccccn1)C1CCN(S(=O)(=O)c2cccc(C(F)(F)F)c2)CC1 [Example 75, N-[(pyridin-2-yl)methyl]-1-[3-(trifluoromethyl)benzenesulfonyl]pipendine-4-carboxamide] | 3.3 | 5.7
O=C(NCc1ccccc1CO)C1CCN(S(=O)(=O)/C=C/c2ccccc2)CC1 [Example 69, N-{[2-(hydroxymethyl)phenyl]methyl}-1-[(E)-2-phenylethenesulfonyl]pipendine-4-carboxamide] | 4.5 | 11.7
O=C(NCc1ccccn1)C1CCN(S(=O)(=O)c2cc(C(F)(F)F)cc(C(F)(F)F)c2)CC1 [Example 127, 1-[3,5-bis(trifluoromethyl)benzenesulfonyl]-N-[(pyridin-2-yl)methyl]piperidine-4-carboxamide] | 1.2 | 3.2
CC(C)(C)c1cccc(S(=O)(=O)N2CCC(C(=O)NCc3ccccc3F)CC2)c1 [Example 33, 1-(3-tert-butylbenzenesulfonyl)-N-[(2-fluorophenyl)methyl]piperidine-4-carboxamide] | 1 | 0.5
O=C(NCc1ccc(O)cc1)C1CCN(S(=O)(=O)c2cc(Cl)cc(Cl)c2)CC1 [Example 123, 1-(3,5-dichlorobenzenesulfonyl)-N-[(4-hydroxyphenyl)methyl]piperidine-4-carboxamide] | 1.3 | 2
COc1ccccc1S(=O)(=O)N1CCC(C(=O)NCc2ccccc2F)CC1 [Example 19, N-[(2-fluorophenyl)methyl]-1-(2-methoxybenzenesulfonyl)piperidine-4-carboxamide] | 3.4 | 5
O=C(NCc1ccccc1O)C1CCN(S(=O)(=O)/C=C/c2ccccc2)CC1 [Example 41, N-[(2-hydroxyphenyl)methyl]-1-[(E)-2-phenylethenesulfonyl]piperidine-4-carboxamide] | 3.2 | 1.8
O=C(NCc1ccccn1)C1CCN(S(=O)(=O)c2cc(Cl)cc(C3COC3)c2)CC1 [Example 116, 1-[3-chloro-5-(oxetan-3-yl)benzenesulfonyl]-N-[(pyridin-2-yl)methyl]piperidine-4-carboxamide] | 2.3 | 5.9
O=C(NCc1ccccc1F)C1CCN(S(=O)(=O)c2ccc(-c3ccccc3)cc2)CC1 [Example 30, 1-{[1,1′-biphenyl]-4-sulfonyl}-N-[(2-fluorophenyl)methyl]piperidine-4-carboxamide] | 0.8 | 0.8
O=C(NCc1ccccn1)C1CCN(S(=O)(=O)c2ccc(CC(F)(F)F)cc2)CC1 [Example 99, N-[(pyridin-2-yl)methyl]-1-[4-(2,2,2-trifluoroethyl)benzenesulfonyl]piperidine-4-carboxamide] | 3.2 | 6.3
O=C(NCc1cccc(CO)c1)C1CCN(S(=O)(=O)c2cc(Cl)cc(Cl)c2)CC1 [Example 117, 1-(3,5-dichlorobenzenesulfonyl)-N-{[3-(hydroxymethyl)phenyl]methyl}piperidine-4-carboxamide] | 0.5 | 0.8
COc1ccccc1CNC(=O)C1CCN(S(=O)(=O)/C=C/c2ccccc2)CC1 [Example 15, N-[(2-methoxyphenyl)methyl]-1-[(E)-2-phenylethenesulfonyl]piperidine-4-carboxamide] | 2.7 | 2.9
O=C(NCc1cccc(F)c1F)C1CCN(S(=O)(=O)/C=C/c2ccccc2)CC1 [Example 22, N-[(2,3-difluorophenyl)methyl]-1-[(E)-2-phenylethenesulfonyl]piperidine-4-carboxamide] | 7 | 3.4
O=C(NCc1ccccc1F)C1CCN(S(=O)(=O)c2ccc(Cl)cc2)CC1 [Example 27, 1-(4-chlorobenzenesulfonyl)-N-[(2-fluorophenyl)methyl]piperidine-4-carboxamide] | 2.4 | 3
CCc1ccc(S(=O)(=O)N2CCC(C(=O)NCc3ccccc3F)CC2)cc1 [Example 34, 1-(4-ethylbenzenesulfonyl)-N-[(2-fluorophenyl)methyl]piperidine-4-carboxamide] | 4.5 | 1
COc1ccccc1CNC(=O)C1CCN(S(=O)(=O)c2ccc(C(C)(C)C)cc2)CC1 [Example 38, 1-(4-tert-butylbenzenesulfonyl)-N-[(2-methoxyphenyl)methyl]piperidine-4-carboxamide] | 0.8 | 0.3
Cc1ccc(S(=O)(=O)N2CCC(C(=O)NCc3ccccc3F)CC2)cc1 [Example 35, N-[(2-fluorophenyl)methyl]-1-(4-methylbenzenesulfonyl)piperidine-4-carboxamide] | 2.9 | 1.5
O=C(NCc1ccccn1)C1CCN(S(=O)(=O)c2cccc(S(F)(F)(F)(F)F)c2)CC1 [Example 85, 1-[3-(pentafluoro-lambda6-sulfanyl)benzenesulfonyl]-N-[(pyridin-2-yl)methyl]pipendine-4-carboxamide] | 3 | 6.4
O=C(NCc1cc(F)ccc1F)C1CCN(S(=O)(=O)/C=C/c2ccccc2)CC1 [Example 23, N-[(2,5-difluorophenyl)methyl]-1-[(E)-2-phenylethenesulfonyl]piperidine-4-carboxamide] | > 20 | 4.6
COC(=O)c1cccc(CNC(=O)C2CCN(S(=O)(=O)c3cc(Cl)cc(Cl)c3)CC2)c1 [Example 118, methyl 3-({[1-(3,5-dichlorobenzenesulfonyl)piperidin-4-yl]formamido}methyl)benzoate] | 4 | 5.7
CC(C)(C)c1ccc(S(=O)(=O)N2CCC(C(=O)NCc3ccccc3Cl)CC2)cc1 [Example 39, 1-(4-tert-butylbenzenesulfonyl)-N-[(2-chlorophenyl)methyl]piperidine-4-carboxamide] | 2.1 | 0.2
O=C(NCc1ccccn1)C1CCN(S(=O)(=O)c2ccc(OC(F)(F)F)cc2)CC1 [Example 58, N-[(pyridin-2-yl)methyl]-1-[4-(trifluoromethoxy)benzenesulfonyl]piperidine-4-carboxamide] | 2.7 | 6.4
CC(C)(C)c1ccc(S(=O)(=O)N2CC(C(=O)NCc3ccccc3F)C2)cc1 [Example 46, 1-(4-tert-butylbenzenesulfonyl)-N-[(2-fluorophenyl)methyl]azetidine-3-carboxamide] | 9.3 | 9.3
O=C(NCc1ccccn1)C1CCN(S(=O)(=O)c2ccc(C(F)(F)F)cc2Cl)CC1 [Example 74, 1-[2-chloro-4-(trifluoromethyl)benzenesulfonyl]-N-[(pyridin-2-yl)methyl]piperidine-4-carboxamide] | 5.1 | 7.1
O=C(NCc1ccccn1)C1CCN(S(=O)(=O)c2cc(Cl)ccc2Cl)CC1 [Example 62, 1-(2,5-dichlorobenzenesulfonyl)-N-[(pyridin-2-yl)methyl]piperidine-4-carboxamide] | 4.6 | 8.2
O=C(NCc1ccccc1Br)C1CCN(S(=O)(=O)/C=C/c2ccccc2)CC1 [Example 32, N-[(2-bromophenyl)methyl]-1-[(E)-2-phenylethenesulfonyl]piperidine-4-carboxamide] | 6.7 | 5.1
